Laboratory results published in paper PMC3116712 (ACS medicinal chemistry letters, 2011).

Tests used:
A/M2-V27A mutant channel = A/M2-V27A mutant channel (Influenza A virus, UniProt P0DOF5, V27A); type: cell-based
A/M2 S31N mutant = A/M2 S31N mutant (Influenza A virus, UniProt P0DOF5, S31N); type: cell-based

**Q.** With `Cl.NC12CC3CC(CC(C3)C1)C2` [Amantadine, reference compound] as the molecule, how does the “percentage inhibition against V27A mutant of A/M2” value (A/M2-V27A mutant channel; 100 µM) read?
**A.** 0%

**Q.** How did the “inhibitory effect on S31N mutant (in words)” value (A/M2 S31N mutant) turn out when `Cl.NC(CO)C12CC3CC(CC(C3)C1)C2` (stereo not drawn) [Compound 27] was run?
**A.** no inhibitory effect

**Q.** And the “inhibitory effect on V27A mutant (in words)” value (A/M2-V27A mutant channel)?
**A.** no inhibitory effect
